In patent publication US11384115B2, “Nuclear sulfated oxysterol, potent regulator of lipid homeostasis, for therapy of hypercholesterolemia, hypertriglycerides, fatty liver diseases, and atherosclerosis” (Virginia Commonwealth University, priority 2004, dated 2022):
Blank lines part the entries; values can stand above or below the compound they belong to.

Columns and labels:
PPARγ = molecular target: T1, PPARγ (Homo sapiens, UniProt P37231); assay: Western blot of nuclear PPARγ levels in THP-1 macrophages; format: cell-based; details: for nuclear PPARγ protein levels: THP-1 macrophages, 4 hrs
T1 construct: THP-1 monocytes were differentiated to macrophages by adding 100 nM of phorbol 12-myristate 13-acetate (PMA); endogenous in cells; host or cells: THP-1 monocyte-derived macrophages (human, ATCC)
T1 sequence (P37231 1-505): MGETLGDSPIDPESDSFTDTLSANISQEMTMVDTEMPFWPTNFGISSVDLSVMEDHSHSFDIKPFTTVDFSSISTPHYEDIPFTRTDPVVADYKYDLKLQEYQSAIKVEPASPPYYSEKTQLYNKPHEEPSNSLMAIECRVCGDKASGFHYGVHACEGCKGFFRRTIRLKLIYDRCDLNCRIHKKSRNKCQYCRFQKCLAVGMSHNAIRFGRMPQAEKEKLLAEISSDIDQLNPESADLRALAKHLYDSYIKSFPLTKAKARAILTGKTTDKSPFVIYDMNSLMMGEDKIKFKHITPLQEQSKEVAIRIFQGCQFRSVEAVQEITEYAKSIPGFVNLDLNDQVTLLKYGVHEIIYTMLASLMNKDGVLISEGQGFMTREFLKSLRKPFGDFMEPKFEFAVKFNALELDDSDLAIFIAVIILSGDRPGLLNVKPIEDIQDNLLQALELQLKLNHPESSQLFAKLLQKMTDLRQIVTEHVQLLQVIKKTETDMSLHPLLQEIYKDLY
Experimental: FIGS. 21A and 21B. Effects of 25HC3S and 25HC on PPARγ protein levels in THP-1 macrophages. A, THP-1 macrophages were treated with 25HC3S (top panel) or 25HC (middle panel) at different concentration as indicated for 4 hrs. The nuclear PPARγ levels were analyzed by Western blot. […] Expression levels were normalized to Lamin as shown in the bottom panels. The data represent one typical result out of three experiments.
Human THP-1 monocytes and H441 cells were purchased from the American Type Culture Collection (Manassas, Va.) and maintained according to the supplier's protocols. THP-1 monocytes were differentiated to macrophages by adding 100 nM of phorbol 12-myristate 13-acetate (PMA). When cells reached 90% confluence, oxysterols in DMSO or in ethanol (the final concentration in media was <0.1%) were added as indicated. The cells were harvested at the times as indicated. Nuclear and cytosolic fractions were isolated using NE-PER®, Nuclear and Cytoplasmic Extraction Reagents (Pierce, Rockford, Ill. Western blot analysis of nuclear PPAR and intracellular I B levels
Fifty μg of total cell lysates or nuclear protein extracts, otherwise as indicated, were separated on 10% SDS-PAGE gels and transferred onto a polyvinylidene difluoride membrane as described previously. Membranes were blocked in TBS containing 5% of nonfat dried milk for 1 hr. The specific proteins were determined by incubation with specific antibodies against human PPAR or IκB overnight at 4° C. with shaking. After washing, the membrane was incubated in a 1:3,000 dilution of a secondary antibody (goat anti-rabbit or anti-mouse IgG-HP conjugate; Bio-Rad, Hercules, Calif.) at room temperature for 1 hr in the washing buffer (Tris buffered solution containing 0.5% Tween 20). The protein bands were visualized using Western Lightening Chemiluminescence Reagent (Perkin-Elmer, Waltham, Mass.). The expression levels were normalized to Lamin.

LXR = details: macrophages, cited from earlier work
HMG CoA reductase mRNA = HMG CoA reductase mRNA by real-time RT-PCR in HepG2 cells; format: cell-based, human; details: for inhibition of HMG CoA reductase mRNA: HepG2, lipid-depleted serum media
Experimental: HepG2 cells were grown in MEM containing non-essential amino acids, 0.03M NaHCO3, 10% FBS, 1 mM L-glutamine, 1 mM sodium pyruvate and 1% Pen/Strep and incubated at 37° C. in 5% CO2. When cells reached at ˜90% confluency, the oxysterols in DMSO or in ethanol (final concentration, 0.1%) and/or [1-^14C]acetate for cholesterol synthesis was added or otherwise as indicated. Microsomal and cytosol fractions were isolated from broken cells as described previously (10).
Total RNA was isolated from HepG2 cells using SV Total RNA Isolation Kit (Promega). Two μg of total RNA was used for first-strand cDNA synthesis as recommended by manufacture (Invitrogen). Real-time PCR was performed using SYBR Green on ABI 7500 Fast Real-Time PCR System (Applied Biosystems). The final reaction mixture contained 5 ng of cDNA, 100 nM of each primer, 10 μl of 2×SYBR® Green PCR Master Mix (Applied Biosystems), and RNase-free water to complete the reaction mixture volume to 20 μl. All reactions were performed in triplicate. The PCR was carried out for 40 cycles at 95° C. for 15 s and 60° C. for 1 min. The fluorescence was read during the reaction, allowing a continuous monitoring of the amount of PCR product. The data was normalized to internal control-β-actin or GAPDH mRNA. The sequences of primers for HMG CoA reductase used in real-time PCR are […] (SEQ ID NO: 1) (Forward) and […] (SEQ ID NO: 2) (Reverse).

SREBP-1 = assay: Western blot of SREBP-1 activation in HepG2 cells; format: cell-based, human; details: for mature forms of SREBP-1: HepG2, dose dependent
Experimental: FIGS. 18A-18D. Western blot analysis of SREBPs activation following 25HC3S or 25HC treatment in HepG2 cells. […] SREBP-1 and SREBP-2 protein levels in the cells were determined by Western blot analysis. The extracted protein (100 μg) was loaded onto each lane for each condition as indicated. The data represent a typical result from one of three independent experiments. The trends of the protein levels are highly reproducible.
Microsomal proteins (80 μg) were separated on a 7.5% SDS-polyacrylamide denaturing gel according to the method of Laemmli (14). Following SDS-PAGE (Hoefer Vertical Slab Gel Unit; Heofer, San Francisco, Calif.), proteins were electrophoretically transferred overnight (4° C.) to Immobilon-P membranes using a Hoefer Trans Blot Electrophoretic Transfer cell. The membranes were then blocked for 90 minutes (25° C.) in blocking buffer (PBS, pH 7.4, 0.1% Tween, 5% non-fat dry milk). Proteins were then incubated for 90 minutes (25° C.) or overnight (4° C.) with a rabbit polyclonal IgG (1:2500-1:20,000) against human SREBP-1, SREBP-2, or HMG CoA reductase. After washing, a secondary antibody (goat anti-rabbit IgG-Horse-radish peroxidase conjugate, 1:2500) was added to the blocking solution (25° C., 90 minutes). Protein bands were detected using the Amersham ECL plus Kit.

IκB = IκB mRNA (RT-PCR) and protein (Western blot) in THP-1 macrophages; format: cell-based, human; details: for IκB protein levels: Western blot, 24 hrs; for increase of IκB mRNA levels: macrophages; for IκB mRNA level: real time RT-PCR, 6 hrs
Experimental: FIG. 25A-C. […] The Western blot data represents one of three experiments.
Fifty μg of total cell lysates or nuclear protein extracts, otherwise as indicated, were separated on 10% SDS-PAGE gels and transferred onto a polyvinylidene difluoride membrane as described previously [31]. Membranes were blocked in TBS containing 5% of nonfat dried milk for 1 hr. The specific proteins were determined by incubation with specific antibodies against human PPAR or IκB overnight at 4° C. with shaking. After washing, the membrane was incubated in a 1:3,000 dilution of a secondary antibody (goat anti-rabbit or anti-mouse IgG-HP conjugate; Bio-Rad, Hercules, Calif.) at room temperature for 1 hr in the washing buffer (Tris buffered solution containing 0.5% Tween 20). The protein bands were visualized using Western Lightening Chemiluminescence Reagent (Perkin-Elmer, Waltham, Mass.). The expression levels were normalized to Lamin.
Total RNA was isolated from THP-1 derived macrophages following treatments for 6 hrs otherwise as indicated using SV Total RNA Isolation Kit (Promega, Wisconsin, Wis.), which includes DNase treatment. Two microgram of total RNA was used for first-strand cDNA synthesis as recommended by manufacturer (Invitrogen, Carlsbad, Calif.). Real-time RT-PCR was performed using SYBR Green as indicator on ABI 7500 Fast Real-Time PCR System (Applied Biosystems, Foster City, Calif.). The final reaction mixture contained 10 ng of cDNA, 100 nM of each primer, 10 μl of 2×SYBR® Green PCR Master Mix (Applied Biosystems, Foster City, Calif.), and RNase-free water to complete the reaction mixture volume to 20 μl. All reactions were performed in triplicate. PCR was carried out for 40 cycles of 95° C. for 15 s and 60° C. for 1 min. The fluorescence was read during the reaction, allowing a continuous monitoring of the amount of PCR product. The data was normalized to internal control GAPDH.

SREBP-2 = assay: Western blot of SREBP-2 activation in HepG2 cells; format: cell-based, human
Experimental: Western blot analysis of SREBPs activation following 25HC3S or 25HC treatment in HepG2 cells. Total proteins were extracted from HepG2 cells treated with 25HC in ethanol (0.1%) (FIGS. 18A and 18C) or 25HC3S in DMSO (0.1%) (FIGS. 18B and 18D), cultured in the media in absence (FIGS. 18A and 18B) or presence (FIGS. 18C and 18D) of mevinolin (50 mM) and mevalonate (0.5 mM). SREBP-1 and SREBP-2 protein levels in the cells were determined by Western blot analysis. The extracted protein (100 μg) was loaded onto each lane for each condition as indicated. The data represent a typical result from one of three independent experiments.
Microsomal proteins (80 μg) were separated on a 7.5% SDS-polyacrylamide denaturing gel according to the method of Laemmli (14). Following SDS-PAGE (Hoefer Vertical Slab Gel Unit; Heofer, San Francisco, Calif.), proteins were electrophoretically transferred overnight (4° C.) to Immobilon-P membranes using a Hoefer Trans Blot Electrophoretic Transfer cell. The membranes were then blocked for 90 minutes (25° C.) in blocking buffer (PBS, pH 7.4, 0.1% Tween, 5% non-fat dry milk). Proteins were then incubated for 90 minutes (25° C.) or overnight (4° C.) with a rabbit polyclonal IgG (1:2500-1:20,000) against human SREBP-1, SREBP-2, or HMG CoA reductase. […] Protein bands were detected using the Amersham ECL plus Kit.

HepG2 cells = assay: Cholesterol levels in microsomal fractions by HPLC after cholesterol oxidase; format: cell-based, human; details: 0-25 μM
[1] = HepG2, in the presence of serum

- nuclear PPARγ protein levels (PPARγ): substantially increased
- cholesterol levels in the microsomal fraction (HepG2 cells): significantly decreased
- cholesterol levels in the microsomal fraction (HepG2 cells; listed as nuclear oxysterol): significant decrease
Structure (SMILES): C[C@H](CCCC(C)(C)O)[C@H]1CC[C@H]2[C@@H]3CC=C4C[C@@H](OS(=O)(=O)O)CC[C@]4(C)[C@H]3CC[C@]12C [25HC3S, 5-cholesten-3β, 25-diol 3-sulphate]
- nuclear PPARγ levels in the presence of the antagonist T0070907 (PPARγ; preincubated with 1 μM of T0070907 for 2 hrs): failed to increase the nuclear PPARγ levels to its maxima
- LXR activities and its targeting gene expressions (LXR): decreases
- HMG CoA reductase mRNA (HMG CoA reductase mRNA; HepG2, 10% FBS media): concentration dependent decreases
- inhibition of the mRNA of HMG CoA reductase and SREBP1 (HMG CoA reductase mRNA; HepG2, at 12 μM): 85%
- inhibition of HMG CoA reductase (HMG CoA reductase mRNA; [1]): 70%
- inhibition of HMG CoA reductase mRNA (HMG CoA reductase mRNA): still strongly inhibits
- mature forms of SREBP-1 (SREBP-1): decreases
- inhibition of SREBP-1 activation (SREBP-1; HepG2, media containing 50 μM of mevinolin and 0.5 μM of mevalonate): more potent inhibition on SREBP-1 activation than 25HC
- IκB protein levels (IκB): increased
- increase of IκB mRNA levels (IκB; 12 μM): 2.5 folds
- increase of IκB mRNA levels (IκB; in the presence of TNFα): 6 folds
- IκB mRNA level (IκB): significantly increased
- mature form of SREBP-2 (SREBP-2): only slightly decreased

Structure (SMILES): C[C@H](CCCC(C)(C)O)[C@H]1CC[C@H]2[C@@H]3CC=C4C[C@@H](O)CC[C@]4(C)[C@H]3CC[C@]12C [25HC, 25-hydroxycholesterol, reference compound]
- nuclear PPARγ protein levels (PPARγ): decreased
- rosiglitazone-increased nuclear PPARγ levels (PPARγ; preincubated with 1 μM of rosiglitazone for 2 hrs, 25HC for 4 hrs): significantly inhibited
- increase of LXR targeting gene expressions, ABCA1/G1 and SREBP-1 mRNAs (LXR; in 6 hrs): 5-50 fold
- inhibition of the mRNA of HMG CoA reductase and SREBP1 (HMG CoA reductase mRNA; HepG2, at 3 μM): 85%
- inhibition of HMG CoA reductase (HMG CoA reductase mRNA; [1]): 70%
- inhibition of HMG CoA reductase mRNA (HMG CoA reductase mRNA): more potent inhibition than 25HC3S
- inhibition of HMG CoA reductase (HMG CoA reductase mRNA; HepG2, lipids depleted serum): 90%
- mature forms of SREBP-1 (SREBP-1): decreases
- IκB protein levels (IκB): decreased
- IκB mRNA level (IκB): no significantly changed
- mature form of SREBP-2 (SREBP-2): only slightly decreased
- cholesterol levels in the microsomal fraction (HepG2 cells): significantly decreased
